Assay results taken from the supplement of paper PMC13207355.

Legend:
Settings in all cases: exposure time: 72 h
E21 [1] = patient-derived glioblastoma stem cells of mesenchymal subtype; assay: surviving fraction (nuclei count normalised to DMSO); higher = more cells surviving (less toxic)
FT3469 [2] = normal neural stem cell line; assay: as above
E57 [3] = patient-derived glioblastoma stem cells of mesenchymal subtype; assay: as above
E13 [4] = patient-derived glioblastoma stem cells of classical subtype; assay: as above
E31 [5] = patient-derived glioblastoma stem cells of proneural subtype; assay: as above
E34 [6] = patient-derived glioblastoma stem cells of proneural subtype; assay: as above
E28 [7] = patient-derived glioblastoma stem cells of classical subtype; assay: as above
E21 [8] = assay: phenotypic distance (Euclidean, principal components) from DMSO controls (arbitrary units); higher = stronger morphological change
FT3469 [9] = assay: as above
E57 [10] = assay: as above
E13 [11] = assay: as above
E31 [12] = assay: as above
E34 [13] = assay: as above
E28 [14] = assay: as above
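For phenotypic distance (Euclidean, principal components) from DMSO controls in this document: cell Painting imaging in 384-well plates, CellProfiler features reduced to at least 20 principal components, Euclidean distance versus same-plate DMSO vehicle wells (0.1% v/v), median over six images per well.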
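For surviving fraction (nuclei count normalised to DMSO) in this document: nuclei counted by high-content imaging of Hoechst-stained cells in laminin-coated 384-well plates, relative to 0.1% DMSO vehicle wells, with staurosporine as cell-death control.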

O=C(O)c1ccc(-c2c[nH]c3ncc(-c4ccccc4)cc23)cc1C1CCCC1
Settings | phenotypic distance | surviving fraction
E13 [4], 4.11523 nM | – | 0.996
E13 [4], 12.34567901 nM | – | 0.826
E13 [4], 37.037 nM | – | 0.899
E13 [4], 111.1111111 nM | – | 0.825
E13 [4], 333.333 nM | – | 0.72
E13 [4], 1000 nM | – | 0.588
E13 [4], 3000 nM | – | 0.413
E13 [11], 4.11523 nM | 3.86 | –
E13 [11], 12.34567901 nM | 2.38 | –
E13 [11], 37.037 nM | 0.747 | –
E13 [11], 111.1111111 nM | 0.749 | –
E13 [11], 333.333 nM | 1 | –
E13 [11], 1000 nM | 2.77 | –
E13 [11], 3000 nM | 5.39 | –
E21 [1], 4.11523 nM | – | 0.933
E21 [1], 12.34567901 nM | – | 0.832
E21 [1], 37.037 nM | – | 0.918
E21 [1], 111.1111111 nM | – | 0.783
E21 [1], 333.333 nM | – | 0.803
E21 [1], 1000 nM | – | 0.681
E21 [1], 3000 nM | – | 0.52
E21 [8], 4.11523 nM | 0.656 | –
E21 [8], 12.34567901 nM | 0.914 | –
E21 [8], 37.037 nM | 0.757 | –
E21 [8], 111.1111111 nM | 0.832 | –
E21 [8], 333.333 nM | 0.828 | –
E21 [8], 1000 nM | 1.75 | –
E21 [8], 3000 nM | 4.49 | –
E28 [7], 4.11523 nM | – | 0.956
E28 [7], 12.34567901 nM | – | 0.911
E28 [7], 37.037 nM | – | 0.873
E28 [7], 111.1111111 nM | – | 1.01
E28 [7], 333.333 nM | – | 0.807
E28 [7], 1000 nM | – | 0.755
E28 [7], 3000 nM | – | 0.51
E28 [14], 4.11523 nM | 0.635 | –
E28 [14], 12.34567901 nM | 0.785 | –
E28 [14], 37.037 nM | 0.418 | –
E28 [14], 111.1111111 nM | 0.61 | –
E28 [14], 333.333 nM | 0.687 | –
E28 [14], 1000 nM | 1.26 | –
E28 [14], 3000 nM | 2.4 | –
E31 [5], 4.11523 nM | – | 1.04
E31 [5], 12.34567901 nM | – | 1.01
E31 [5], 37.037 nM | – | 0.885
E31 [5], 111.1111111 nM | – | 1.14
E31 [5], 333.333 nM | – | 0.798
E31 [5], 1000 nM | – | 1.04
E31 [5], 3000 nM | – | 0.688
E31 [12], 4.11523 nM | 0.443 | –
E31 [12], 12.34567901 nM | 0.638 | –
E31 [12], 37.037 nM | 0.948 | –
E31 [12], 111.1111111 nM | 0.662 | –
E31 [12], 333.333 nM | 1.08 | –
E31 [12], 1000 nM | 1.15 | –
E31 [12], 3000 nM | 1.91 | –
E34 [6], 4.11523 nM | – | 0.913
E34 [6], 12.34567901 nM | – | 1.06
E34 [6], 37.037 nM | – | 0.86
E34 [6], 111.1111111 nM | – | 0.909
E34 [6], 333.333 nM | – | 0.805
E34 [6], 1000 nM | – | 0.714
E34 [6], 3000 nM | – | 0.527
E34 [13], 4.11523 nM | 1.13 | –
E34 [13], 12.34567901 nM | 0.775 | –
E34 [13], 37.037 nM | 0.829 | –
E34 [13], 111.1111111 nM | 1.03 | –
E34 [13], 333.333 nM | 1.12 | –
E34 [13], 1000 nM | 2.9 | –
E34 [13], 3000 nM | 4.8 | –
E57 [3], 4.11523 nM | – | 0.932
E57 [3], 12.34567901 nM | – | 0.905
E57 [3], 37.037 nM | – | 0.923
E57 [3], 111.1111111 nM | – | 0.916
E57 [3], 333.333 nM | – | 0.835
E57 [3], 1000 nM | – | 0.6
E57 [3], 3000 nM | – | 0.35
E57 [10], 4.11523 nM | 0.657 | –
E57 [10], 12.34567901 nM | 0.719 | –
E57 [10], 37.037 nM | 0.687 | –
E57 [10], 111.1111111 nM | 1.04 | –
E57 [10], 333.333 nM | 0.598 | –
E57 [10], 1000 nM | 1.78 | –
E57 [10], 3000 nM | 4.38 | –
FT3469 [2], 4.11523 nM | – | 0.822
FT3469 [2], 12.34567901 nM | – | 0.943
FT3469 [2], 37.037 nM | – | 0.972
FT3469 [2], 111.1111111 nM | – | 0.987
FT3469 [2], 333.333 nM | – | 0.813
FT3469 [2], 1000 nM | – | 0.996
FT3469 [2], 3000 nM | – | 0.766
FT3469 [9], 4.11523 nM | 0.839 | –
FT3469 [9], 12.34567901 nM | 1.18 | –
FT3469 [9], 37.037 nM | 0.627 | –
FT3469 [9], 111.1111111 nM | 1.11 | –
FT3469 [9], 333.333 nM | 0.969 | –
FT3469 [9], 1000 nM | 1.71 | –
FT3469 [9], 3000 nM | 2.49 | –

NC(=O)c1ccccc1 [Benzamide]
Settings | phenotypic distance | surviving fraction
E13 [4], 4.1 nM | – | 0.896
E13 [4], 12.3 nM | – | 0.891
E13 [4], 37 nM | – | 0.961
E13 [4], 111.1 nM | – | 1.04
E13 [4], 333.3 nM | – | 1.03
E13 [4], 1000 nM | – | 0.945
E13 [4], 3000 nM | – | 1.04
E13 [11], 4.1 nM | 0.817 | –
E13 [11], 12.3 nM | 0.661 | –
E13 [11], 37 nM | 0.401 | –
E13 [11], 111.1 nM | 0.597 | –
E13 [11], 333.3 nM | 0.747 | –
E13 [11], 1000 nM | 0.669 | –
E13 [11], 3000 nM | 0.437 | –
E21 [1], 4.1 nM | – | 1.03
E21 [1], 12.3 nM | – | 0.945
E21 [1], 37 nM | – | 0.996
E21 [1], 111.1 nM | – | 1.1
E21 [1], 333.3 nM | – | 1.04
E21 [1], 1000 nM | – | 0.872
E21 [1], 3000 nM | – | 1
E21 [8], 4.1 nM | 0.487 | –
E21 [8], 12.3 nM | 0.521 | –
E21 [8], 37 nM | 0.591 | –
E21 [8], 111.1 nM | 1.08 | –
E21 [8], 333.3 nM | 0.913 | –
E21 [8], 1000 nM | 0.784 | –
E21 [8], 3000 nM | 0.381 | –
E28 [7], 4.1 nM | – | 0.82
E28 [7], 12.3 nM | – | 1.08
E28 [7], 37 nM | – | 0.909
E28 [7], 111.1 nM | – | 1.31
E28 [7], 333.3 nM | – | 1.03
E28 [7], 1000 nM | – | 1.09
E28 [7], 3000 nM | – | 1.04
E28 [14], 4.1 nM | 0.972 | –
E28 [14], 12.3 nM | 1.17 | –
E28 [14], 37 nM | 0.735 | –
E28 [14], 111.1 nM | 1.32 | –
E28 [14], 333.3 nM | 0.871 | –
E28 [14], 1000 nM | 1.28 | –
E28 [14], 3000 nM | 0.95 | –
E31 [5], 4.1 nM | – | 0.994
E31 [5], 12.3 nM | – | 0.978
E31 [5], 37 nM | – | 0.972
E31 [5], 111.1 nM | – | 1.02
E31 [5], 333.3 nM | – | 0.968
E31 [5], 1000 nM | – | 1.07
E31 [5], 3000 nM | – | 0.947
E31 [12], 4.1 nM | 0.849 | –
E31 [12], 12.3 nM | 1.02 | –
E31 [12], 37 nM | 1.47 | –
E31 [12], 111.1 nM | 1.03 | –
E31 [12], 333.3 nM | 0.83 | –
E31 [12], 1000 nM | 0.791 | –
E31 [12], 3000 nM | 0.951 | –
E34 [6], 4.1 nM | – | 1.03
E34 [6], 12.3 nM | – | 0.958
E34 [6], 37 nM | – | 0.993
E34 [6], 111.1 nM | – | 1.04
E34 [6], 333.3 nM | – | 0.904
E34 [6], 1000 nM | – | 1.29
E34 [6], 3000 nM | – | 1.03
E34 [13], 4.1 nM | 1.19 | –
E34 [13], 12.3 nM | 0.687 | –
E34 [13], 37 nM | 0.776 | –
E34 [13], 111.1 nM | 1.03 | –
E34 [13], 333.3 nM | 0.862 | –
E34 [13], 1000 nM | 1.13 | –
E34 [13], 3000 nM | 0.579 | –
E57 [3], 4.1 nM | – | 0.938
E57 [3], 12.3 nM | – | 1.06
E57 [3], 37 nM | – | 1.02
E57 [3], 111.1 nM | – | 0.94
E57 [3], 333.3 nM | – | 0.938
E57 [3], 1000 nM | – | 0.896
E57 [3], 3000 nM | – | 0.99
E57 [10], 4.1 nM | 0.41 | –
E57 [10], 12.3 nM | 0.828 | –
E57 [10], 37 nM | 0.568 | –
E57 [10], 111.1 nM | 0.557 | –
E57 [10], 333.3 nM | 0.555 | –
E57 [10], 1000 nM | 0.56 | –
E57 [10], 3000 nM | 0.478 | –
FT3469 [2], 4.1 nM | – | 0.912
FT3469 [2], 12.3 nM | – | 1.15
FT3469 [2], 37 nM | – | 0.999
FT3469 [2], 111.1 nM | – | 0.863
FT3469 [2], 333.3 nM | – | 0.935
FT3469 [2], 1000 nM | – | 0.921
FT3469 [2], 3000 nM | – | 1.1
FT3469 [9], 4.1 nM | 0.505 | –
FT3469 [9], 12.3 nM | 1.05 | –
FT3469 [9], 37 nM | 0.628 | –
FT3469 [9], 111.1 nM | 1.13 | –
FT3469 [9], 333.3 nM | 0.522 | –
FT3469 [9], 1000 nM | 1.07 | –
FT3469 [9], 3000 nM | 0.83 | –
